In ChEMBL document CHEMBL1201862, “PubChem BioAssay data set” (2004):
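Each compound was tested at five concentrations against cells in 96-well plates for 48 hours. Abbreviation: GI50, concentration required for 50% inhibition of growth.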 Calls of active or inactive are those of the source. No stated cut-off is given here; in the data, active = GI50 up to about 1.1 µM and inactive = higher.

What was measured:
Assay in all cases: DTP human tumour cell line panel, 48 h
T47D = system: T47D
RPMI-8226 = system: RPMI-8226
SK-OV-3 = system: SK-OV-3
UACC-257 = system: UACC-257
UO-31 = system: UO-31
NCI-H23 = system: NCI-H23
HOP-92 = system: HOP-92
NCI-H460 = system: NCI-H460
MDA-N = system: MDA-N
SNB-19 = system: SNB-19
SF-268 = system: SF-268
RXF 393 = system: RXF 393
SF-295 = system: SF-295
ACHN = system: ACHN
BT-549 = system: BT-549
TK-10 = system: TK-10
A549 = system: A549
A498 = system: A498
SK-MEL-28 = system: SK-MEL-28
LOX IMVI = system: LOX IMVI
SK-MEL-5 = system: SK-MEL-5
OVCAR-8 = system: OVCAR-8
CAKI-1 = system: CAKI-1
MDA-MB-435 = system: MDA-MB-435
HCT-15 = system: HCT-15
SN12C = system: SN12C
HT-29 = system: HT-29
EKVX = system: EKVX
OVCAR-4 = system: OVCAR-4
SW-620 = system: SW-620
COLO 205 = system: COLO 205
Malme-3M = system: Malme-3M
M14 = system: M14
786-0 = system: 786-0
NCI-H226 = system: NCI-H226
DU-145 = system: DU-145
NCI-H522 = system: NCI-H522
MDA-MB-231 = system: MDA-MB-231
SF-539 = system: SF-539
U-251 = system: U-251
NCI/ADR-RES = system: NCI/ADR-RES
IGROV-1 = system: IGROV-1
SNB-75 = system: SNB-75
KM12 = system: KM12
OVCAR-5 = system: OVCAR-5
MOLT-4 = system: MOLT-4
HOP-62 = system: HOP-62
HCT-116 = system: HCT-116
OVCAR-3 = system: OVCAR-3
SR = system: SR
UACC-62 = system: UACC-62
HL-60 = system: HL-60
K562 = system: K562
PC-3 = system: PC-3
SK-MEL-2 = system: SK-MEL-2
MCF7 = system: MCF7
HCC 2998 = system: HCC 2998

SMILES: CC(C)[Si](OC1=C(C(=O)N(C)c2ccccc2Cl)CCCCC1)(C(C)C)C(C)C
- GI50 (T47D): > 100 µM (inactive)
- GI50 (RPMI-8226): > 100 µM (inactive)
- GI50 (SK-OV-3): > 100 µM (inactive)
- GI50 (UACC-257): > 100 µM (inactive)
- GI50 (UO-31): > 100 µM (inactive)
- GI50 (NCI-H23): > 100 µM (inactive)
- GI50 (HOP-92): > 100 µM (inactive)
- GI50 (NCI-H460): > 100 µM (inactive)
- GI50 (MDA-N): > 100 µM (inactive)
- GI50 (SNB-19): > 100 µM (inactive)
- GI50 (SF-268): > 100 µM (inactive)
- GI50 (RXF 393): > 100 µM (inactive)
- GI50 (SF-295): > 100 µM (inactive)
- GI50 (ACHN): > 100 µM (inactive)
- GI50 (BT-549): > 100 µM (inactive)
- GI50 (TK-10): > 100 µM (inactive)
- GI50 (A549): > 100 µM (inactive)
- GI50 (A498): > 100 µM (inactive)
- GI50 (SK-MEL-28): > 100 µM (inactive)
- GI50 (LOX IMVI): > 100 µM (inactive)
- GI50 (SK-MEL-5): > 100 µM (inactive)
- GI50 (OVCAR-8): > 100 µM (inactive)
- GI50 (CAKI-1): > 100 µM (inactive)
- GI50 (MDA-MB-435): > 100 µM (inactive)
- GI50 (HCT-15): > 100 µM
- GI50 (SN12C): > 100 µM (inactive)
- GI50 (HT-29): > 100 µM (inactive)
- GI50 (EKVX): > 100 µM (inactive)
- GI50 (OVCAR-4): > 100 µM (inactive)
- GI50 (SW-620): > 100 µM (inactive)
- GI50 (COLO 205): > 100 µM (inactive)
- GI50 (Malme-3M): > 100 µM (inactive)
- GI50 (M14): > 100 µM (inactive)
- GI50 (786-0): > 100 µM (inactive)
- GI50 (NCI-H226): > 100 µM (inactive)
- GI50 (DU-145): > 100 µM (inactive)
- GI50 (NCI-H522): 97.1 µM (inactive)
- GI50 (MDA-MB-231): > 100 µM (inactive)
- GI50 (SF-539): > 100 µM (inactive)
- GI50 (U-251): > 100 µM (inactive)
- GI50 (NCI/ADR-RES): > 100 µM (inactive)
- GI50 (IGROV-1): > 100 µM (inactive)
- GI50 (SNB-75): > 100 µM (inactive)
- GI50 (KM12): > 100 µM (inactive)
- GI50 (OVCAR-5): > 100 µM (inactive)
- GI50 (MOLT-4): > 100 µM (inactive)
- GI50 (HOP-62): > 100 µM (inactive)
- GI50 (HCT-116): > 100 µM (inactive)
- GI50 (OVCAR-3): > 100 µM (inactive)

SMILES: NCCCNCCCNCCCN
- GI50 (T47D): 12.6 µM (inactive)
- GI50 (RPMI-8226): 16.4 µM (inactive)
- GI50 (SR): 18.8 µM (inactive)
- GI50 (SK-OV-3): > 100 µM (inactive)
- GI50 (UACC-62): > 100 µM (inactive)
- GI50 (UACC-257): > 100 µM (inactive)
- GI50 (UO-31): > 100 µM (inactive)
- GI50 (NCI-H23): > 100 µM (inactive)
- GI50 (MDA-N): > 100 µM (inactive)
- GI50 (SNB-19): > 100 µM (inactive)
- GI50 (SF-268): 3.48 µM (inactive)
- GI50 (RXF 393): > 100 µM (inactive)
- GI50 (SF-295): > 100 µM (inactive)
- GI50 (ACHN): > 100 µM (inactive)
- GI50 (BT-549): > 100 µM (inactive)
- GI50 (TK-10): > 100 µM (inactive)
- GI50 (A549): > 100 µM (inactive)
- GI50 (A498): > 100 µM (inactive)
- GI50 (SK-MEL-28): > 100 µM (inactive)
- GI50 (LOX IMVI): > 100 µM (inactive)
- GI50 (HL-60): > 100 µM (inactive)
- GI50 (SK-MEL-5): > 100 µM (inactive)
- GI50 (OVCAR-8): > 100 µM (inactive)
- GI50 (CAKI-1): > 100 µM (inactive)
- GI50 (MDA-MB-435): > 100 µM (inactive)
- GI50 (HCT-15): > 100 µM
- GI50 (K562): 25.2 µM (inactive)
- GI50 (SN12C): > 100 µM (inactive)
- GI50 (PC-3): > 100 µM (inactive)
- GI50 (HT-29): > 100 µM (inactive)
- GI50 (EKVX): > 100 µM (inactive)
- GI50 (OVCAR-4): > 100 µM (inactive)
- GI50 (SK-MEL-2): > 100 µM (inactive)
- GI50 (SW-620): > 100 µM (inactive)
- GI50 (COLO 205): > 100 µM (inactive)
- GI50 (Malme-3M): > 100 µM (inactive)
- GI50 (M14): > 100 µM (inactive)
- GI50 (786-0): > 100 µM (inactive)
- GI50 (NCI-H226): > 100 µM (inactive)
- GI50 (DU-145): > 100 µM (inactive)
- GI50 (MCF7): > 100 µM (inactive)
- GI50 (NCI-H522): 54.3 µM (inactive)
- GI50 (MDA-MB-231): > 100 µM (inactive)
- GI50 (U-251): > 100 µM (inactive)
- GI50 (NCI/ADR-RES): > 100 µM (inactive)
- GI50 (IGROV-1): > 100 µM (inactive)
- GI50 (KM12): > 100 µM (inactive)
- GI50 (OVCAR-5): > 100 µM (inactive)
- GI50 (MOLT-4): 14.9 µM (inactive)
- GI50 (HOP-62): > 100 µM (inactive)
- GI50 (HCT-116): > 100 µM (inactive)
- GI50 (HCC 2998): > 100 µM (inactive)
- GI50 (OVCAR-3): > 100 µM (inactive)

SMILES: O=C(O)C(O)(c1ccc(-c2ccccc2)cc1)c1ccc(-c2ccccc2)cc1
- GI50 (T47D): 41.6 µM (inactive)
- GI50 (RPMI-8226): 56.6 µM (inactive)
- GI50 (SR): 47.5 µM (inactive)
- GI50 (UACC-62): 18.1 µM (inactive)
- GI50 (UACC-257): 36.1 µM (inactive)
- GI50 (UO-31): 42 µM (inactive)
- GI50 (NCI-H23): 18.9 µM (inactive)
- GI50 (HOP-92): 19.1 µM (inactive)
- GI50 (NCI-H460): 20.4 µM (inactive)
- GI50 (MDA-N): 17.1 µM (inactive)
- GI50 (SNB-19): 49.4 µM (inactive)
- GI50 (SF-268): 24.3 µM (inactive)
- GI50 (RXF 393): 22 µM (inactive)
- GI50 (SF-295): 34 µM (inactive)
- GI50 (ACHN): 32.1 µM (inactive)
- GI50 (BT-549): 20.5 µM (inactive)
- GI50 (TK-10): 37.6 µM (inactive)
- GI50 (A549): 40.4 µM (inactive)
- GI50 (A498): 23.3 µM (inactive)
- GI50 (SK-MEL-28): 35.3 µM (inactive)
- GI50 (LOX IMVI): 17.9 µM (inactive)
- GI50 (HL-60): 21.5 µM (inactive)
- GI50 (SK-MEL-5): 18.9 µM (inactive)
- GI50 (OVCAR-8): 32.5 µM (inactive)
- GI50 (CAKI-1): 28.8 µM (inactive)
- GI50 (MDA-MB-435): 19.5 µM (inactive)
- GI50 (HCT-15): 19.2 µM
- GI50 (K562): 80.9 µM (inactive)
- GI50 (SN12C): 22 µM (inactive)
- GI50 (PC-3): 27 µM (inactive)
- GI50 (HT-29): 30.2 µM (inactive)
- GI50 (EKVX): 24.3 µM (inactive)
- GI50 (OVCAR-4): 36 µM (inactive)
- GI50 (SK-MEL-2): 14.1 µM (inactive)
- GI50 (SW-620): 32.4 µM (inactive)
- GI50 (Malme-3M): 23.1 µM (inactive)
- GI50 (M14): 35 µM (inactive)
- GI50 (786-0): 24.5 µM (inactive)
- GI50 (NCI-H226): 26.9 µM (inactive)
- GI50 (DU-145): 16.6 µM (inactive)
- GI50 (NCI-H522): 18.9 µM (inactive)
- GI50 (MDA-MB-231): 28.3 µM (inactive)
- GI50 (U-251): 17.1 µM (inactive)
- GI50 (NCI/ADR-RES): 24.5 µM (inactive)
- GI50 (IGROV-1): 23.4 µM (inactive)
- GI50 (SNB-75): 17.1 µM (inactive)
- GI50 (KM12): 19.9 µM (inactive)
- GI50 (OVCAR-5): 26.7 µM (inactive)
- GI50 (MOLT-4): 42.2 µM (inactive)
- GI50 (HOP-62): 20.1 µM (inactive)
- GI50 (HCT-116): 23.5 µM (inactive)
- GI50 (OVCAR-3): 15 µM (inactive)
